From US9221868B2, “Uridine di- or tri-phosphate derivatives and uses thereof” (BAR-ILAN UNIVERSITY, priority 2010, dated 2015)

What was measured:
P2Y4-R = target: T1, P2Y4-R (Homo sapiens, UniProt P51582); test: [Ca2+]i increase in 1321N1 astrocytoma cells expressing P2Y4-R; format: cell-based; details: n.d.r = no detectable response up to 100 μM
T1 construct: expressed in transfected cells; host or cells: 1321N1 astrocytoma cells
Procedure: (§1) Green fluorescent protein (GFP) constructs of human P2Y2-R, P2Y4-R and P2Y6-R were expressed in 1321N1 astrocytoma cells, which lack endogenous expression of P2X- and P2Y-receptors. The respective cDNA of the receptor gene was cloned into a pEGFPN1 vector. After transfection using FuGENE 6 Transfection Reagent (Roche Molecular Biochemicals, Mannheim, Germany), the cells were selected with 0.5 mg/ml G418 (geneticine; Merck Chemicals, Darmstadt, Germany) and grown in Dulbecco's modified Eagles' medium (DMEM) supplemented with 10% fetal calf serum, 100 U/ml penicillin and […] at 37° C. and 5% CO2. The expression and cell membrane localization of the respective P2Y receptors was confirmed through the analysis of the GFP fluorescence. The functionality of the expressed GFP-labeled receptor in cells was verified by recording a change of [Ca^2+]i after stimulation with the appropriate receptor agonist.
(§2) 1321N1 astrocytoma cells transfected with the respective plasmid for P2YR-GFP expression plated on coverslips (22 mm diameter) and grown to approximately 80% density were incubated with 2 μM fura 2/AM and 0.02% pluronic acid in Na-HBS buffer (Hepes buffered saline: 145 mM NaCl, 5.4 mM KCl, 1.8 mM CaCl2, 1 mM MgCl2, 25 mM glucose, 20 mM Hepes/Tris pH 7.4) for 30 min at 37° C. The cells were superfused (1 ml/min, 37° C.) with different concentrations of nucleotide in Na-HBS buffer, and the nucleotide-induced change of [Ca^2+]i was measured by detecting the respective emission intensity of fura 2/AM at 510 nm with after 340 nm and 380 nm excitations (Ubl et al., 1998). The average maximal amplitude of the responses and the respective standard errors were calculated from the ratio of the fura 2/AM fluorescence intensities with excitations at 340 nm and 380 nm (only MT-labeled cells were analysed). Microsoft Excel (Microsoft Corp., Redmond, Wash., USA) and SigmaPlot (SPSS Inc., Chicago, Ill., USA) were used to derive the concentration-response curves and EC50 values from the average response amplitudes obtained in at least three independent experiments (Ecke et al., 2006, 2008). Only cells with a clear MT-signal and with the typical calcium response kinetics upon agonist pulse application were included in the data analysis. The GFP-tagged P2Y receptors are suitable for pharmacological and physiological studies, as previously reported (Tulapurkar et al., 2004, 2006; Zylberg et al., 2007).
(§3) In this study, analogues 13-17 were tested for their potency and selectivity at P2Y2,4,6-receptors based on measurements of increases in intracellular calcium concentrations in 1321N1 astrocytoma cells transfected with the respective plasmid, as described in Materials and Methods, and the results are summarized in Table 2.

P2Y2-R = P2Y2-R (Homo sapiens, UniProt P41231); test: [Ca2+]i increase in 1321N1 astrocytoma cells expressing P2Y2-R; format: cell-based; design: expressed in transfected cells; host or cells: 1321N1 astrocytoma cells; details: 1321N1 astrocytoma cells, [Ca2+]i; n.d.r = no detectable response up to 100 μM
P2Y2-R, sequence (P41231 whole entry): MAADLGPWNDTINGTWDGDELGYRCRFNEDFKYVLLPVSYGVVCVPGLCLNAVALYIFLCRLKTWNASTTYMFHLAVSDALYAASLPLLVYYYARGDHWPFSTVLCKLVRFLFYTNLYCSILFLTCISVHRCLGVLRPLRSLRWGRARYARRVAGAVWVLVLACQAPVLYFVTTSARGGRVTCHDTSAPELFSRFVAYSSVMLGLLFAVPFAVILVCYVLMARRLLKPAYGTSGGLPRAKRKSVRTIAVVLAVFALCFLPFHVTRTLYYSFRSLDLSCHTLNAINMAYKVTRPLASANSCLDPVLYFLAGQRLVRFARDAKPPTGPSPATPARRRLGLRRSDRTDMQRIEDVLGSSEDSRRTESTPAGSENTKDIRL
Procedure: as §1, §2, §3

P2Y6-receptor = P2Y6-receptor (Homo sapiens, UniProt Q15077); details: Ginsburg-Shmuel et al., 2010; read-out: EC50 at P2Y6-receptor (literature); cited from earlier work
P2Y6-receptor, sequence (Q15077 whole entry): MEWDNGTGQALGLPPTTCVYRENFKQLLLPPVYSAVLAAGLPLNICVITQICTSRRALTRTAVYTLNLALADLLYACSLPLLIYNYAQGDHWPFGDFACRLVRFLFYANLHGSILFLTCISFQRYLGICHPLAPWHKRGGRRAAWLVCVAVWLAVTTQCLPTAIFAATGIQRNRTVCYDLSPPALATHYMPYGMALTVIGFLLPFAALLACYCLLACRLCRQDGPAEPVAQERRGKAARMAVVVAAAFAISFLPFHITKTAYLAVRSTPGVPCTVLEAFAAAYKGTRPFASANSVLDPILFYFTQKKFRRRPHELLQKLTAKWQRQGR

T1 sequence (P51582 whole entry): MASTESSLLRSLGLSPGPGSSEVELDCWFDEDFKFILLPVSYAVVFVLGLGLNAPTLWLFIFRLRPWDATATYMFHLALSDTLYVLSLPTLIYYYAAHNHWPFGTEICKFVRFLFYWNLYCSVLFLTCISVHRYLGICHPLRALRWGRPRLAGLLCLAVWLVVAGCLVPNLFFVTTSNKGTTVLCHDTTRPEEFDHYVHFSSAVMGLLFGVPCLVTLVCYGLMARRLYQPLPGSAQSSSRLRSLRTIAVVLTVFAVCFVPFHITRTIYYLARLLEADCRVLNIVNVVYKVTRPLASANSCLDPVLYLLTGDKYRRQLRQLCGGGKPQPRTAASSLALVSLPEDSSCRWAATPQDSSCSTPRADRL

Row | SMILES | Potencies (EC50) at the P2Y4-R (P2Y4-R) | Potencies (EC50) at the P2Y2-R (P2Y2-R) | EC50 (P2Y6-receptor) [nM]
1 | [BH3-][P+](O)(OCC1OC(n2cc(OC)c(=O)[nH]c2=O)C(O)C1O)OP(=O)(O)O (single isomer, unassigned) [Analogue 13A, 5-methoxyuridine-5′-O-(α-boranodiphosphate)] | n.d.r | n.d.r | –
2 | O=c1ccn([C@@H]2O[C@H](COP(=O)(O)OP(=O)(O)O)[C@@H](O)[C@H]2O)c(=O)[nH]1 [UDP, reference compound] | – | – | 140
